In patent US5952189A (priority 1997, dated 1999):
Like-named read-outs stand apart in the source and are kept apart here.

System: BT-20
Format: cell-based, human
Conditions: for % DNA fragmentation: BT-20, UV 0.5 J/cm^2, 8 h, no inhibitor 44 ± 3.6

C[C@H](NC(=O)OCc1ccccc1)C(=O)N[C@@H](C)C(=O)NC(Cc1ccccc1)B(O)O (stereo partly shown) [DK120, carbobenzoxy-ala-ala-borophe]
% DNA fragmentation (inhibitor 0.2 μM): 5 ± 8.7%
% DNA fragmentation (inhibitor 1 μM): 0%
% DNA fragmentation (inhibitor 5 μM): 0%
Effect on UV-induced DNA fragmentation (summary of Table 2 (BT-20, 3T3, HL-60)): effectively blocked DNA fragmentation
